Tests used:
[1] = tested on: Rat Müller cells (rMC-1); test: TNFalpha and cleaved caspase 3 ELISA in Müller cells cultured in high glucose; format: cell-based
Method: (§1) Human retinal endothelial cells (HREC) were purchased from Cell Systems (Kirkland, Wash.) and grown in either basal (5 mM glucose) or growth (25 mM glucose) media. Both media is supplemented with 10% FBS and antibiotics. The day prior to experiments, cells are serum-starved for 18-24 hours. Rat Müller cells (rMC-1) were grown in DMEM medium with 5 mM glucose or 25 mM glucose. Media was supplemented with 10% FBS and antibiotics. Cells were serum starved prior to all experiments for 18-24 hours.
(§2) Human retinal endothelial cells (HREC) and rat Muller cells (rMC-1) in both glucose conditions were treated with Compound 2 at doses of 10 nM, 50 nM, 100 nM, 1 μM, and 10 μM of Compound 2. Cells of each type were grown in medium containing L-glucose to control for changes in osmolarity. 10 μM isoproterenol was also used for each condition as a positive control. Müller cells were treated for 1 hour and 24 hours, while HREC were treated for 30 and 60 minutes.
(§3) Following treatment, cells were collected into lysis buffer containing protease and phosphatase inhibitors. ELISA analyses for TNFalpha, cleaved caspase 3, and PKA were done according to manufacturers instructions. Data is compared against non-treated cells and cells at the various doses. A Kruskal-Wallis test is done, with a Dunn's test for secondary analyses. […] The dose that decreases TNFalpha and caspase 3 levels also increases PKA activity.

[2] = tested on: Human retinal endothelial cells (HREC); test: TNFalpha and cleaved caspase 3 ELISA in retinal endothelial cells cultured in high glucose; format: cell-based
Method: as §1, §2, §3

[3] = Body weight, blood glucose, blood pressure and intraocular pressure in streptozotocin diabetic rats on eye drop therapy; format: in vivo, rat; conditions: rats, 50 mM topical dose of isoproterenol
Method: Male Lewis rats purchased from Charles River were used. Diabetic rats received a single injection of 60 mg/kg streptozotocin (Fisher, Pittsburgh, Pa.). […] All rats were weighed weekly and only rats with non-fasting blood glucose levels >250 mg/dl were considered diabetic. The designation of diabetic was made at the beginning of the experiments. Glucose was measured bimonthly. No insulin was administered to the rats at any time. To determine whether topical application of Compound 2 could reach the retina and elicit response, dose and time course studies were performed. For those studies, animals were made diabetic for 2 months using STZ. For 4 days, rats received a variety of doses of either Compound 2 (1 mM to 20 mM) or PBS once or twice each day. After the 4 days of eye drop treatment to both eyes, the diabetic and control animals were euthanized. […] After determining the optimal dose and time course for eye drop treatment for Compound 2, three groups of rats were used for this part of the study (control, diabetic (Diabetic), and diabetic+eye drop (Diab+2). Within 1 week of STZ-injection, 12 rats were put onto eye drop therapy. Rats on the eye drop therapy received a daily application of 4 drops of 1 mM Compound 2 to each eye. To verify that insulin levels were lost in the diabetic animals, insulin ELISA (Rat/Mouse Insulin ELISA kit, Linco, St. Charles, Mo.) was done on blood sampled from all rats at 2 months of age. Rats were sacrificed at 2 or 8 months of age. […] Analyses on the rats were done for acute changes (8 weeks of diabetes, 45 rats) and chronic changes (8 months of diabetes, 45 rats). […] Each month, all rats were tested for visual function: electroretinogram (ERG) and live retinal imaging were performed using Optical Coherence Topography (OCT). […] While the animals were asleep for ERG analyses, blood pressure and pulse were monitored to detect potential negative cardiovascular events.

[4] = tested on: retina; conditions: given systemically to rodents; cited from earlier work
[5] = Müller cells in high glucose, 50 nM, vs non-treated
[6] = REC in high glucose, 50 nM, vs non-treated
[7] = Müller cells, 10 μM isoproterenol

Q: Which “TNFalpha concentration and cleaved caspase 3: comparison of isomers” value ([1]; Muller cells, 50 nM, 1 hour or 24 hours) does the source give for `COc1cc(CCNC[C@H](O)c2ccc(O)c(O)c2)cc(OC)c1OC.Cl` (single isomer, unassigned) [R-isomer of Compound 2] here?
A: The value was “superior to the S-isomer of Compound 2 and racemic Compound 2”.

Q: What about the “TNFalpha concentration and cleaved caspase 3: comparison of isomers” value ([2]; retinal endothelial cells, 50 nM, 1 hour or 24 hours) of the same molecule?
A: The value was “superior to the S-isomer of Compound 2 and racemic Compound 2”.

Q: What does the source list for `COc1cc(CCNC[C@H](O)c2ccc(O)c(O)c2)cc(OC)c1OC` [Compound 3, 4-[1-hydroxy-2-(1-ethylamino-3-,4-,5-trimethoxyphenyl)ethyl]benzene-1,2-diol]?
A: TNFalpha levels, in words [1, 5]: significantly reduced TNFalpha within 1 hour; cleaved caspase 3 levels, in words [1, 5]: reduced the cleavage of caspase 3; TNFalpha levels, in words [2, 6]: reduced; cleaved caspase 3 levels, in words [2, 6]: reduced the cleavage of caspase 3

Q: What does the source list for `COc1cc(CCNC[C@H](O)c2cc(O)cc(O)c2)cc(OC)c1OC.Cl` [Compound 4, 5-(1-hydroxy-2-[2-(3,4,5-trimethosy-phenyl)-ethylamino]-ethyl)-benzene-1,3-diol hydrochloride]?
A: beta-2-adrenergic receptor activity (ELISA data) ([1]; Muller cells, 50 nM): has more beta-2-adrenergic receptor activity; effectiveness and speed compared with Compound 2 ([1]; Muller cells, 50 nM): more effective and works faster than Compound 2; TNFalpha levels, in words [1, 5]: reduce TNFalpha levels; cleaved caspase 3 levels, in words [1, 5]: reduce TNFalpha levels and the cleavage of caspase 3; beta-2-adrenergic receptor activity (ELISA data) ([2]; REC cells, 50 nM): has more beta-2-adrenergic receptor activity; TNFalpha levels, in words [2, 6]: reduce TNFalpha levels; cleaved caspase 3 levels, in words [2, 6]: reduce TNFalpha levels and the cleavage of caspase 3; time to activate response compared with Compound 2 ([2]; retinal endothelial cells, 50 nM): does take longer to activate response

Q: With `CC(C)NCC(O)c1ccc(O)c(O)c1` (centres unmarked) [isoproterenol, 4-[1-hydroxy-2-(isopropylamino)ethyl]benzene-1,2-diol, reference compound] as the molecule, how does the “negative cardiovascular events (blood pressure and pulse)” value [3] read?
A: The value was “these events have not been observed”.

Q: And the “concentration required for the same response (reduction of cleaved caspase 3 and TNFalpha)” value ([1]; Müller cells in high glucose, compared with 50 nM Compound 2)?
A: The value was 10 µM.

Q: What about the “cleaved caspase 3 levels, in words” value ([1]; Müller cells in hyperglycemic conditions, isoproterenol, concentration not given) of the same molecule?
A: The value was “can decrease cleaved caspase 3 levels”.

Q: What about the “time for blockade of apoptosis” value [1, 7] of the same molecule?
A: Its value is 24 h.

Q: And the “time for inhibition of TNFalpha activity” value [1, 7]?
A: The value was no more than 1 h.

Q: And the “cleaved caspase 3 levels, in words” value ([2]; REC in hyperglycemic conditions, isoproterenol, concentration not given)?
A: Its value is “can decrease cleaved caspase 3 levels”.

Q: What about the “TNFalpha reduction, in words” value ([2]; retinal endothelial cells, 10 μM in vitro) of the same molecule?
A: The value was “did not significantly reduce TNFalpha”.

Q: Which results are given for `CC(C)NCC(O)COc1cccc2ccccc12` (centres unmarked) [propranolol]?
A: electrical activity in the retina [4]: produced significant deficits in the electrical activity in the retina; growth factors that may promote neovascularization [4]: activated growth factors that may promote neovascularization

From patent US20120329879A1, “BETA-ADRENERGIC RECEPTOR AGONISTS AND USES THEREOF” (THE UNIVERSITY OF TENNESSEE RESEARCH FOUNDATION, priority 2010, published 2012)
